Tests used:
[1] = tested on: CCl4 induced hepatic injury in rats; experiment: Hepatoprotective activity (in vivo) against CCl4 induced hepatic injury in rats
Description: 033 and 033 (2) reduced the elevated levels of serum OPT, GOT, ALP, bilirubin, TG and liver homogenate lipid peroxidation and increased the GSH level. […] The same with silymarin was: 58.44, 51:63, 52,26,57.50,41.30,62.05 & 60.15% respectively. (Table-1). [table]

[2] = tested on: GalN induced hepatic injury in rats; experiment: Hepatoprotective activity (in vivo) against GalN (galactosamine) induced hepatic injury in rats
Description: On treatment of experimental animals with galactosamine (GaIN) induced hepatic damage the hepatoprotective activity observed with 033 and 033 (2) was 59.58 & 50.75, 56.62 & 43.64, 54.28 & 50.11, 57.71 & 57.57, 57.89 & 44.76 percent in serum GPT, GOT, Bilirubin, ALP, and TG respectively and 67.51 & 38.65, 66-56 & 48.10 percent in liver homogenate lipid peroxidation (LP) and GSH respectively. The same with silymarin was 57.38, 55.40, 60.00. 53.54,46.17, 69.59, 67.18 percent respectively (Table-2). Advantages of the present invention over currently used plant based hepatoprotectives: • 1. […] Silymarin is a mixture of three constituents whose relative proportion varies from batch to batch while negundoside is a pure compound. [table]

[3] = rats, CCl4 1 ml/kg p.o., fed p.o. at 48 h, 24 h, 2 h before and 6 h after, 033 400 mg/kg, 033 (2) and silymarin 50 mg/kg, n=6
[4] = rats, GalN 300 mg/kg s.c., fed p.o. at 48 h, 24 h, 2 h before and 6 h after, 033 400 mg/kg, 033 (2) and silymarin 50 mg/kg, n=6

**Q.** With C[C@]1(O)CC[C@@H]2C(C(=O)O)=CO[C@@H](O[C@@H]3O[C@H](CO)[C@@H](O)[C@H](O)[C@H]3OC(=O)c3ccc(O)cc3)[C@@H]21 [033 (2), 2′-p-hydroxybenzoylmussaenosidic acid] as the compound, how does the “Hepatoprotective activity in words” value ([1]; experimentally induced hepatic damage in rodents, CCl4 as hepatotoxin) read?
**A.** marked hepatoprotective activity

**Q.** And the “Hepatic Glutathione (GSH, liver homogenate): mean percent hepatoprotective activity” value [1, 3]?
**A.** 45.56%

**Q.** And the “Hepatic Lipid peroxidation (liver homogenate): mean percent hepatoprotective activity” value [1, 3]?
**A.** 45.85%

**Q.** What about the “Serum ALP: mean percent hepatoprotective activity” value [1, 3] of the same compound?
**A.** 53.95%

**Q.** What about the “Serum Bilirubin (mg %): mean percent hepatoprotective activity” value [1, 3] of the same compound?
**A.** 66.66%

**Q.** And the “Serum GOT (Units): mean percent hepatoprotective activity” value [1, 3]?
**A.** 58.05%

**Q.** What about the “Serum OPT (Units): mean percent hepatoprotective activity (reduction of elevated GPT)” value [1, 3] of the same compound?
**A.** 60.34%

**Q.** And the “Serum Triglycerides (mg %): mean percent hepatoprotective activity” value [1, 3]?
**A.** 44.19%

**Q.** What about the “Hepatoprotective activity in words” value ([2]; experimentally induced hepatic damage with galactosamine (GalN) in rats) of the same compound?
**A.** marked hepatoprotective activity

**Q.** What about the “Hepatic Glutathione (GSH, liver homogenate): mean percent hepatoprotective activity” value [2, 4] of the same compound?
**A.** 48.10%

**Q.** What about the “Hepatic Lipid peroxidation (LP, liver homogenate): mean percent hepatoprotective activity” value [2, 4] of the same compound?
**A.** 38.65%

**Q.** And the “Serum ALP: mean percent hepatoprotective activity” value [2, 4]?
**A.** 57.57%

**Q.** And the “Serum Bilirubin (mg %): mean percent hepatoprotective activity” value [2, 4]?
**A.** 50.11%

**Q.** And the “Serum GOT (Units): mean percent hepatoprotective activity” value [2, 4]?
**A.** 43.64%

**Q.** And the “Serum GPT (Units): mean percent hepatoprotective activity (GPT)” value [2, 4]?
**A.** 50.75%

**Q.** What about the “Serum Triglycerides (mg %): mean percent hepatoprotective activity” value [2, 4] of the same compound?
**A.** 44.76%

— patent US7259148B2, “Hepatoprotective activity of 2′-p-hydroxybenzoylmussaenosidic acid” (Council of Scientific & Industrial Research, priority 2003, dated 2007)
